Where a name gives a salt, the structure may show the parent alone.
Target: cholesterol biosynthesis wherein HMG-CoA reductase acts as a rate limiting enzyme (rat liver microsome and sup fraction)
Assay: Test A: Inhibition of Cholesterol Biosynthesis from Acetate In Vitro
Assay type: biochemical, male Wistar rat
Conditions: for IC50: [2-14C]sodium acetate incorporation, rat liver microsome + sup fraction, 2 hours, 37° C., read-out: I50 (Inhibitory activities by Test A); for Relative activities by Test A: relative to activity of CS-514 evaluated to be 1
Protocol: Enzyme solution was prepared from liver of male Wistar rat billialy cannulated and discharged bile for over 24 hours. Liver was cut out at mid-dark and microsome and supernatant fraction which was precipitable with 40-80% of saturation of ammonium sulfate (sup fraction) were prepared from liver homogenate according to the modified method of Knauss et. al.; Kuroda, M., et. al., Biochim. Biophys. Acta, 489, 119 (1977). For assay of cholesterol biosynthesis, microsome (0.1 mg protein) and sup fraction (1.0 mg protein) were incubated for 2 hours at 37° C. in 200 μl of the reaction mixture containing ATP; 1 mM, Glutathione; 6 mM, Glucose-1-phosphate; 10 mM, NAD; 0.25 mM, NADP; 0.25 mM, CoA; 0.04 mM and 0.2 mM [2-^14 C]sodium acetate (0.2 μCi) with 4 μl of test compound solution dissolved in water or dimethyl sulfoxide. To stop reaction and saponify, 1 ml of 15% EtOH--KOH was added to the reactions and heated at 75° C. for 1 hour. […] Inhibitory activity of compounds was indicated with IC50.

Compound | IC50 | Relative activities by Test A
CCC(C)C(=O)OC1CC(O)C=C2C=CC(C)C(CCC(O)CC(O)CC(=O)O)C21 (stereo not shown) [CS-514, reference compound] | 9 nM | 
CC(C)c1nc2ccccc2c(-c2ccc(F)cc2)c1/C=C/C(O)CC(O)CC(=O)O (stereo not shown) [Compound I-51, Sodium salt of (E)-3,5-dihydroxy-7-[4'-(4"-fluorophenyl)-2'-(1"-methylethyl)-quinolin-3'-yl]-hept-6-enoic acid] | 10 nM | 
CCOC(=O)CC(O)CC(O)/C=C/c1c(CC)nc2ccccc2c1-c1ccc(F)cc1 (stereo not shown) [Compound I-117] |  | 0.37
CC(C)c1nc2c(Cl)cc(Cl)cc2c(-c2ccc(F)cc2)c1/C=C/C(O)CC(O)CC(=O)O (stereo not shown) [Compound I-522] |  | 0.76

From US5102888A, “Quinoline type mevalonolactones useful for treating hyperlipidemia and related diseases” (Nissan Chemical Industries Ltd., priority 1987, dated 1992)
